# Results as given in PubChem BioAssay AID488890 (Southern Research Specialized Biocontainment Screening …, 2010).
# Results filed as inconclusive are left out. Calls of active or inactive are those of the source. How the calls were made is not given here.
# Test system: Mycobacterium tuberculosis non-replicating, growth inhibition
# Test: growth inhibition of non-replicating M. tuberculosis (AID 488890)
row,SMILES,IC50
1,CCOc1ccccc1C(=O)OCC(=O)Nc1nnc(-c2ccccc2)o1,21.7 µM (inactive)
2,O=C(OCCCOC(=O)c1ccc([N+](=O)[O-])o1)c1ccc([N+](=O)[O-])o1,1.22 µM
3,Cn1cnc([N+](=O)[O-])c1Sc1ccc([N+](=O)[O-])cc1,19.7 µM (inactive)
4,Cc1nnc(N/N=C/c2ccc(-c3ccc(Br)cc3)o2)n1N,3.49 µM
5,CCOC(=O)c1cc(-c2c(Cl)cccc2Cl)no1,2.22 µM
6,N=c1oc2ccc(Cl)cc2cc1C(=O)NC1CCCCCC1,11.6 µM (inactive)
7,CCN1CCN(c2ccc(S(=O)(=O)N3CCCCC3)cc2NC(=O)c2ccc([N+](=O)[O-])s2)CC1,7.39 µM
8,O=C(OCC(=O)N1CCN(c2ccccc2)CC1)c1ccc(Cl)cc1[N+](=O)[O-],14.4 µM (inactive)
9,O=C(N/N=C\c1ccco1)c1cncc(Br)c1,38.1 µM (inactive)
10,O=C(Nc1cccc2ccccc12)c1ccc([N+](=O)[O-])o1,2.11 µM
11,O=C(N/N=C/c1ccc([N+](=O)[O-])s1)c1ccccc1,5.44 µM
12,O=C1Nc2cc(C(=O)NCCCN3CCOCC3)ccc2S/C1=C/c1cccc(Cl)c1,20.8 µM (inactive)
13,CN1CCC(O)(c2ccc(Cl)cc2)C(C(=O)c2ccc(Cl)cc2)C1 (stereo not given),1.97 µM
14,COc1ccc(C(CCNCc2ccccc2)c2ccc(F)cc2)cc1 (stereo not given),8.67 µM
15,FC(F)(F)c1nc(SCc2ccc(Cl)cc2Cl)n[nH]1,4.69 µM
16,S=C1SCN(Cc2cccnc2)CN1Cc1ccccc1,14.9 µM (inactive)
17,O=C(Oc1cccnc1)c1ccc(Cl)c(Cl)c1,3.86 µM
18,O=c1oc2ccccc2nc1/C=C(\O)c1ccc(Br)cc1,6.03 µM
19,CSc1nc2ccc(NC(=O)C3CC(=O)N(Cc4ccccc4)C3)cc2s1 (stereo not given),13.6 µM (inactive)
20,Cc1nnc(N/N=C/c2cccc(OCc3ccc(Cl)c(Cl)c3)c2)n1N,3.37 µM
21,COc1ccccc1-c1nnc(Sc2nc([N+](=O)[O-])nn2C)o1,8.19 µM
22,CC1(C)CC(=O)C(C2NCCc3ccccc32)=C(O)C1 (stereo not given),30.8 µM (inactive)
23,Cn1cccc1/C=N/NC(=O)c1ccncc1,1.96 µM

row,SMILES,IC50
1,O=C(N/N=C/C=C/c1ccccc1)c1ccccn1,7.93 µM
2,CCCc1cc(NCCCn2ccnc2)n2nc(C)c(-c3ccccc3)c2n1,19.5 µM (inactive)
3,CCOC(=O)C1(CCc2ccccc2)CCN(Cc2ccccn2)CC1,13.6 µM (inactive)
4,CC1=NNC(=O)/C1=C\c1cn(-c2ccccc2)nc1-c1ccccc1,7.73 µM
5,CCCCCC/C(=N/O)c1ccccn1,11.6 µM (inactive)
6,COc1cc2c(cc1OC)CN(C(=O)c1ccc([N+](=O)[O-])o1)CC2,1.29 µM
7,COCCNC(=O)c1cc2cc(Cl)cc(Cl)c2oc1=O,3.67 µM
8,COc1cccc(-c2nnc(NC(=O)c3ccc(S(=O)(=O)N4CCOCC4)cc3)o2)c1,18.7 µM (inactive)
9,CCCn1c(CNc2ccccc2O)nc2ccccc21,3.3 µM
10,O=C(CCN1CCCCCC1)c1ccccc1,9.1 µM
11,CCOC(=O)C(=NCCOC)NNc1cc(Cl)ccc1Cl,30.4 µM (inactive)
12,C/C(=N\Nc1nc2ccccc2nc1C)c1ccccc1O,1.65 µM
13,O=C(N/N=C/c1ccc([N+](=O)[O-])o1)c1ccc(NS(=O)(=O)c2cccs2)cc1,9.88 µM
14,Clc1cccc(OCCN2CCN(CCOc3cccc(Cl)c3)CC2)c1,21.7 µM (inactive)
15,COc1cc(/C=N/Nc2ccc(Cl)c(C(=O)O)c2)ccc1OC(=O)c1cccs1,8.27 µM
16,O=C(Nc1ccc(Cl)c(Cl)c1)O/N=C/c1ccncc1,15.5 µM (inactive)
17,COc1ccc(CNC(=O)c2cc3cccc(O)c3oc2=N)cc1,14.3 µM (inactive)
18,CCc1ccc(OCCCC(=O)NCc2ccco2)cc1,5.18 µM
19,Cc1cccc(NC(=O)COC(=O)CCc2c[nH]c3ccccc23)c1,1.94 µM
20,Cc1ccccc1NC(=O)C1COc2ccccc2O1 (stereo not given),9.25 µM
21,O=C(COC(=O)c1ccccc1Br)Nc1ccccc1F,14.7 µM (inactive)
22,O=C(CNC1CCCC1)Nc1ccc(N2CCCCCC2)cc1,10.7 µM (inactive)
23,COc1cc(/C=N/N(C)C)ccc1OC(=O)c1cccs1,8.4 µM

row,SMILES,IC50
1,CCOc1cc(/C=N/NC(=O)c2ccccn2)ccc1OC(=O)c1cccs1,5.55 µM
2,CSC1=N/C(=C\c2ccc3c(c2)OCO3)C(=O)S1,4.95 µM
3,O=C(Nc1nnc(-c2ccc(Br)cc2)o1)C1=COCCO1,24.6 µM (inactive)
4,Cc1ccc2nc(-c3ccccn3)c(NC3CCCC3)n2c1,12.5 µM (inactive)
5,COc1cccc(-c2cc3nc4c(c(NCC(C)(C)CN(C)C)n3n2)CCCC4)c1,26.2 µM (inactive)
6,O=c1c2c([N+](=O)[O-])cc([N+](=O)[O-])cc2nc2ccccn12,9.45 µM
7,CN(C)Cc1ccccc1Sc1ccc(Br)cc1,27.7 µM (inactive)
8,O=C(NC(=S)N1CCN(Cc2ccc3c(c2)OCO3)CC1)c1ccc(Cl)cc1,33.4 µM (inactive)
9,C=CCNc1nnc(Sc2ncccc2[N+](=O)[O-])s1,4.7 µM
10,Cc1occc1-c1nnc(-c2cc([N+](=O)[O-])cc([N+](=O)[O-])c2)o1,1.56 µM
11,CC(C)c1ccc(N2C(=O)CC(Sc3ncn[nH]3)C2=O)cc1 (stereo not given),11.2 µM (inactive)
12,O=C(Nc1nnc(-c2ccncc2)o1)c1ccc(Br)s1,7.66 µM
13,O=C(COc1ccccc1)Nc1nnc(-c2ccc3c(c2)CCCC3)o1,0.9 µM
14,O=C(OCc1cccc([N+](=O)[O-])c1)c1ccc2ccccc2n1,7.25 µM
15,O=C(OCn1ncc(Br)c(Br)c1=O)c1ccccc1Cl,6.27 µM
16,COc1cc(OC)cc(C(=O)Oc2c(CN3CCOCC3)cc(Cl)c3cccnc23)c1,7.87 µM
17,CCOC(=O)c1ccc(NC(=O)NS(=O)(=O)c2ccc(C)cc2)cc1,3.31 µM
18,CC(C)(O)C#Cc1ccc(C(=O)Nc2ccc3c(c2)OCO3)s1,5.97 µM
19,Cc1ccc(N=Nc2c(C)[nH]n(C(N)=S)c2=O)cc1,2.35 µM
20,CCn1c(NC(=O)C2CCCCC2)nc2ccccc21,4.53 µM
21,O=S1(=O)C=C(Sc2nnc(-c3ccccc3)o2)c2ccccc21,< 0.1 µM
22,Cc1ccc(C(=O)COC(=O)c2cccs2)cc1,11 µM (inactive)
23,O=C(Oc1ccc(F)cc1)c1ccc2c(=O)n3c(nc2c1)CCC3,2.49 µM

row,SMILES,IC50
1,O=C(Nc1nnc(-c2ccccn2)o1)c1cccc(Cl)c1,11.4 µM (inactive)
2,Cn1nnnc1Sc1ncnc2scc(-c3ccc[nH]3)c12,8.43 µM
3,O=C(COc1ccc2ccccc2c1)N1CCCC1,14.7 µM (inactive)
4,O=c1c(=Nc2ccccc2O)c(=O)c2ccccc12,2.73 µM
5,CCOCCOC(=O)COc1ccc2c(-c3ccccc3)cc(=O)oc2c1,0.98 µM
6,CCCc1cc(C(=O)Nc2ccccc2SC)no1,12.1 µM (inactive)
7,Cc1ccnc(NC(=O)COc2ccc3c(c2)CCC3)c1,1.7 µM
8,O=C(NC(=S)Nc1ccc(F)cc1)C1CCCCC1,0.71 µM
9,O=C(NCCC1=CCCCC1)c1coc(=O)c(Br)c1,23.7 µM (inactive)
10,CCC(C)[C@H]1CN=C(N)N1CCc1cccc2ccccc12 (stereo not given in full),12.5 µM (inactive)
11,O=C1C=CC(=O)N1N(c1ccccc1)c1ccccc1,8.68 µM
12,CC(C)(C)CC(=O)NC(=S)NCc1ccco1,4.56 µM
13,CC(=O)Nc1sc2c(c1-c1nc3ccccc3s1)CCN(C(C)C)C2,6.35 µM
14,CC(=O)N(Cc1ccc(F)cc1)C1=C(NCCc2ccccc2)C(=O)c2ccccc2C1=O,4.4 µM
15,Cc1ccc2nc(C)c3c(c2c1)COC3,29.8 µM (inactive)
16,O=C(COC(=O)c1cc(Cl)ccc1O)c1ccc2c(c1)OCO2,6.61 µM
17,O=C(CCN1CCOCC1)c1ccc(Br)cc1,3.83 µM
18,CSc1ccccc1NC(=O)c1cc(C(C)C)on1,22.2 µM (inactive)
19,CCOC(=O)COn1c(-c2cccc(Cl)c2)nc2ccc([N+](=O)[O-])cc21,19.6 µM (inactive)
20,O=C1CC(N2CCC(C(=O)N3CCCCC3)CC2)C(=O)N1 (stereo not given),12.3 µM (inactive)
21,Cc1ccc(C)c(-c2nnc(NC(=O)C3=COCCO3)o2)c1,23.1 µM (inactive)
22,O=C1C=C(Nc2ccc(F)cc2)c2ccccc2C1=O,5.36 µM
23,COc1ccc2nc(/N=C(\N)NC(=O)C(C)(C)C)nc(C)c2c1,17.4 µM (inactive)

row,SMILES,IC50
1,COc1ccc(NC(=O)COc2ccccc2)cc1Cl,22.2 µM (inactive)
2,Cc1ccc(NC(=O)COC(=O)C(NS(=O)(=O)c2ccc(Cl)cc2)C(C)O)cc1C (stereo not given),22.1 µM (inactive)
3,Cc1cc(C)cc(NC(=O)COC(=O)CC2CCCC2)c1,21.5 µM (inactive)
4,O=C(CCSc1ccccc1)N1CCCC1,3.33 µM
5,Cc1cc(N2CCC(C)CC2)nc(-n2nc(C)cc2C)n1,0.83 µM
6,CCOC(=O)c1c(NC(=O)COC(=O)c2ccccn2)sc2c1CCC2,7.87 µM
7,COc1ccccc1-c1nnc(NC(=O)c2ccc3ncsc3c2)o1,22.5 µM (inactive)
8,Cc1nn2c(NCc3ccccn3)cc(C(C)C)nc2c1-c1ccccc1,1.44 µM
9,CCOC(=O)Cn1cc(C#N)c2ccccc21,6.17 µM
10,Cc1ccc(NC(=O)C(=O)NNC(=O)c2ccccc2C)cc1Cl,2.67 µM
11,C[C@@H]1CN=C2N(CCNC(=O)CCC3CCCCC3)[C@H](Cc3ccc(O)cc3)CN21,18.9 µM (inactive)
12,CN1CCc2c(sc(NC(=O)c3ccc([N+](=O)[O-])o3)c2C(N)=O)C1,8.37 µM
13,Cc1cc(NCCCn2ccnc2)n2ncc(-c3ccc(Cl)cc3)c2n1,13.1 µM (inactive)
14,Cc1cccc(/C=C/c2onc(C)c2[N+](=O)[O-])n1,15 µM (inactive)
15,NCCOc1ccc(C23CC4CC(CC(C4)C2)C3)cc1,16 µM (inactive)
16,COc1cccc(NC(=O)c2ccc(C(=O)c3ccccc3)o2)c1,3.36 µM
17,Cc1cc(C)nc(-n2nc(C)cc2Nc2ccccc2)n1,5.25 µM
18,CCCn1nnc(NC(=O)COc2ccc(CC)cc2)n1,17.9 µM (inactive)
19,Cn1c(=O)c2c(=O)cc(NNC(=O)CC#N)[nH]c2n(C)c1=O,26.9 µM (inactive)
20,COC(=O)C1=C(C)N(Cc2ccccc2)C(=NCc2ccccc2)N[C@H]1c1cccc(F)c1,6.37 µM
21,Cc1cc(NCc2ccccn2)n2ncc(-c3ccccc3)c2n1,1.93 µM
22,Cc1ccc(C(=O)COC(=O)CCc2ccc(S(=O)(=O)N3CCCCC3)cc2)cc1,23 µM (inactive)
23,O=C(CCSc1nnc(-c2ccccc2)o1)N1CCOCC1,3.95 µM
